In brackets after ≈: the same amount, converted by molar mass.
Legend:
[1] = tested on: Pseudomonas aeruginosa (Pae, PAWT, ATCC #27853); assay: MIC against Pseudomonas aeruginosa reference strain PAWT; format: cell-based; details: Pseudomonas aeruginosa wild type PAWT
Description: (§1) For evaluation of efficacy, we assembled panels of representative gram-negative pathogens, including Pseudomonas aeruginosa (Pae, PAWT, ATCC #27853), Klebsiella pneumoniae (Kpn, KPWT, ATCC #700603), Acinetobacter baumannii (Aba, ABWT, ATCC #BAA-747) and Escherichia coli (Eco, ECWT, ATCC #25922). These reference strains are useful indicator organisms to characterize compound activity against bacteria from a pathogenic genus in the absence of multiple resistance mechanisms. Two strains (PAWT and ECWT) are reference strains cited within the Clinical and Laboratory Standards Institute (CLSI) Standards for susceptibility testing by Minimum Inhibitory Concentration (MIC) (SXPS2) and are well suited for quality control. ABWT and ECWT are widely susceptible to aminoglycoside antibiotics, whereas PAWT and KPWT harbor a single aminoglycoside-modifying enzyme (AGME) that targets 4,6-substituted-2-deoxystreptamine AGs. […]

[2] = tested on: Klebsiella pneumoniae (Kpn, KPWT, ATCC #700603); assay: MIC against Klebsiella pneumoniae reference strain KPWT; format: cell-based; details: for MIC KPWT: Klebsiella pneumonia KPWT, Table 5 (unit not given), in µg/mL
Description: as §1, with “These reference strains are useful indicator organisms to characterize compound activity against bacteria from a pathogenic genus in the absence of multiple resistance mechanisms.” left out

[3] = tested on: Acinetobacter baumannii (Aba, ABWT, ATCC #BAA-747); assay: MIC against Acinetobacter baumannii reference strain ABWT; format: cell-based
Description: as §1

[4] = tested on: Pseudomonas aeruginosa PR1 (clinical isolate with intermediate aminoglycoside resistance); assay: MIC against Pseudomonas aeruginosa clinical isolate PR1; format: cell-based; details: Pseudomonas aeruginosa resistant strain PR1
Description: (§2) Pseudomonas aeruginosa is a prominent nosocomial pathogen. In addition to intrinsic antibiotic resistance to several antibiotics, Pseudomonas has acquired multiple additional mechanisms of resistance. As a result, therapeutic options for the treatment of infections caused by Pseudomonas aeruginosa are limited. We acquired clinical isolates of Pseudomonas aeruginosa (Micromyx LLC, Kalamazoo, Mich.), and used this panel to test compounds for Pseudomonicidal activity. […] For each strain and antibiotic, the mechanism(s) of resistance was inferred from the resistance profile. The presence of specific AGMEs was confirmed by colony PCR.

[5] = tested on: Pseudomonas aeruginosa PR2 (clinical isolate with intermediate aminoglycoside resistance); assay: MIC against Pseudomonas aeruginosa clinical isolate PR2; format: cell-based; details: Pseudomonas aeruginosa resistant strain PR2
Description: as §2

[6] = tested on: Pseudomonas aeruginosa PR3 (high-level, efflux-mediated, pan-aminoglycoside resistance); assay: MIC against Pseudomonas aeruginosa clinical isolate PR3; format: cell-based; details: for MIC PR3: Pseudomonas aeruginosa resistant strain PR3
Description: as §2

[7] = tested on: more than fifty resistant contemporary clinical isolates of Pseudomonas aeruginosa; assay: MIC90 against panel of resistant clinical isolates of Pseudomonas aeruginosa; format: cell-based
Description: To assess this, a panel of more than fifty resistant contemporary clinical isolates of Pseudomonas aeruginosa were obtained from multiple sources including JMI Laboratories (North Liberty, Iowa), Pfizer (Groton, Conn.), Micromyx (Kalamazoo, Mich.), Dr. J. Chow (Wayne State University). Strains were characterized for resistance to a wide variety of classes of antibiotics including aminoglycosides, β-lactams and fluoroquinolones. […] This reflects the difficulty in treating clinical Pseudomonas aeruginosa infections. […] Using this stringent panel, we tested a subset of compounds of the invention (Table 4).

[8] = tested on: Klebsiella pneumoniae KR1 (clinical isolate with intermediate aminoglycoside resistance); assay: MIC against Klebsiella pneumoniae clinical isolate KR1; format: cell-based; details: Klebsiella pneumonia KR1; in µg/mL
Description: (§3) Klebsiella pneumoniae (Kpn) and Escherichia coli (Eco) are gram-negative (like Pae), enteric pathogens with increasing clinical relevance. Many clinical isolates of Kpn and Eco harbor extended-spectrum beta-lactamases and are no longer sensitive to most beta-lactam antibiotics. We acquired clinical isolates of Klebsiella pneumoniae and Escherichia coli (Micromyx LLC, Kalamazoo, Mich.) and used this panel to test compounds for anti-enteric activity.

[9] = tested on: Klebsiella pneumoniae KR2 (clinical isolate with intermediate aminoglycoside resistance); assay: MIC against Klebsiella pneumoniae clinical isolate KR2; format: cell-based; details: Klebsiella pneumonia KR2
Description: as §3

[10] = tested on: Klebsiella pneumoniae KR3 (clinical isolate possessing high-level aminoglycoside resistance); assay: MIC against Klebsiella pneumoniae clinical isolate KR3; format: cell-based; details: Klebsiella pneumonia KR3; in µg/mL
Description: as §3

[11] = tested on: fifty resistant contemporary clinical isolates of Klebsiella pneumoniae; assay: MIC90 against panel of resistant clinical isolates of Klebsiella pneumoniae; format: cell-based; details: for MIC90 Klebsiella pneumonia: stringent panel of resistant clinical isolates, Table 5
Description: Using this stringent Klebsiella pneumoniae panel, we tested a subset of compounds of the invention.

panel of E. coli strains = assay: MIC90 against a panel of E. coli strains; format: cell-based; details: in µg/mL
[12] = tested on: Acinetobacter baumannii AB1; assay: MIC against Acinetobacter baumannii clinical isolate AB1; format: cell-based
Description: (§4) Acinetobacter baumannii is another clinically important and very challenging gram negative pathogen. Members of the Acinetobacter genus, including baumannii, have a remarkable ability to upregulate and acquire resistance determinants. Coupled with its ability to survive for prolonged periods in a hospital environment, A. baumannii is an emerging threat for healthcare institutions globally. We acquired clinical isolates of Acinetobacter baumannii and used this panel to test compounds for anti-Acinetobacter activity. We first tested reference AGs against our panel of Aba strains.

[13] = tested on: Acinetobacter baumannii AB2; assay: MIC against Acinetobacter baumannii clinical isolate AB2; format: cell-based
Description: as §4

[14] = tested on: Acinetobacter baumannii AB3; assay: MIC against Acinetobacter baumannii clinical isolate AB3; format: cell-based
Description: as §4

[15] = tested on: fifty resistant contemporary clinical isolates of Acinetobacter baumannii; assay: MIC90 against panel of resistant clinical isolates of Acinetobacter baumannii; format: cell-based
Description: As in the case of Pseudomonas aeruginosa and Klebsiella pneumoniae, we considered whether the SAR observed against select Acinetobacter baumannii strains 1, 2 or 3 was indicative of general potency. […] Using this stringent Acinetobacter baumannii panel, we tested a subset of compounds of the invention.

[16] = tested on: Escherichia coli (Eco, ECWT, ATCC #25922); assay: MIC against Escherichia coli reference strain ECWT; format: cell-based; details: ATCC25922
Description: For evaluation of efficacy, we assembled panels of representative gram-negative pathogens, including Pseudomonas aeruginosa (Pae, PAWT, ATCC #27853), Klebsiella pneumoniae (Kpn, KPWT, ATCC #700603), Acinetobacter baumannii (Aba, ABWT, ATCC #BAA-747) and Escherichia coli (Eco, ECWT, ATCC #25922). These reference strains are useful indicator organisms to characterize compound activity against bacteria from a pathogenic genus in the absence of multiple resistance mechanisms. Two strains (PAWT and ECWT) are reference strains cited within the Clinical and Laboratory Standards Institute (CLSI) Standards for susceptibility testing by Minimum Inhibitory Concentration (MIC) (SXPS2) and are well suited for quality control. ABWT and ECWT are widely susceptible to aminoglycoside antibiotics, whereas PAWT and KPWT harbor a single aminoglycoside-modifying enzyme (AGME) that targets 4,6-substituted-2-deoxystreptamine AGs.

P. aeruginosa 6294 MLP-3 = assay: Rat neutropenic thigh model; format: in vivo
Protocol: The compound identified as SXP 2523 was selected for further testing in vivo. Twenty male Sprague Dawley rats were pre-treated with cyclophosphamide to render them neutropenic on day −4 and day −1 with 100 mg/kg and 75 mg/kg respectively. Rats were infected with P. aeruginosa 6294 MLP-3, via injection into the right thigh muscle of 0.1 mL per rat. Two hours post infection rats were treated intravenously with either SXP-2523 or amikacin in a total dose of 10 or 60 mg/kg, respectively. The test article and control agent were delivered at 2, 4, and 6 hours post infection. Five rats were treated with each drug concentration. One group of five rats was euthanized at initiation of treatment and thigh CFUs were processed (T=Rx). Twenty-four hours post infection rats were euthanized by CO2 inhalation. The right thigh muscles of the rats were aseptically removed, weighed, homogenized, serially diluted, and plated on MacConkey medium. The plates were incubated overnight at 37° C. in 5% CO2. CFU per gram of thigh was calculated by enumerating the plated colonies then adjusting for serial dilutions and the weight of the thigh. The following table 7 summarizes the results Table 6: […]

[17] = tested on: resistant strain of P. aeruginosa (P. aeruginosa 6294 MLP-3); assay: Rat neutropenic thigh model against resistant P. aeruginosa; format: in vivo; details: resistant P. aeruginosa
Protocol: The compound identified as SXP 2523 was further tested in vivo against a resistant strain of P. aeruginosa. Twenty male Sprague Dawley rats were rendered neutropenic by treatment with cyclophosphamide on day −4 and day −1 with 100 mg/kg and 75 mg/kg, respectively. Rats were infected with P. aeruginosa 6294 MLP-3, via injection into the right thigh muscle of 0.1 mL per rat. Two hours post infection rats were treated intravenously with either SXP-2523 or amikacin in a total dose of 10 or 60 mg/kg, respectively. The test article and control agent were delivered at 2, 4, and 6 hours post infection. Five rats were treated with each drug concentration. One group of five rats were euthanized at initiation of treatment and thigh CFUs were determined (T=Rx). Twenty-four hours post infection; rats were euthanized by CO2 inhalation. The right thigh muscles of the rats were aseptically removed, weighed, homogenized, serially diluted, and plated on BHI medium. The plates were incubated overnight at 37° C. in 5% CO2. CFU per gram of thigh was calculated by enumerating the plated colonies then adjusting for serial dilutions and the weight of the thigh.

[18] = tested on: Klebsiella pneumoniae screening panel KPWT, KR1, KR2, KR3; assay: Klebsiella pneumoniae screening panel (KPWT, KR1, KR2, KR3), reference AGs; format: cell-based
Description: as §3

[19] = Log CFU/thigh, total dose 10 mg/kg SXP-2523 or 60 mg/kg amikacin iv
[20] = neutropenic male Sprague Dawley rats, iv at 2, 4, 6 h post infection, total dose 10 mg/kg SXP-2523 or 60 mg/kg amikacin, 24 h post infection

## NCCC(O)C(=O)NC1CC(N)C(OC2OC(CN)C(O)CC2N)C(F)C1OC1OC(CNCC2CNC2)C(O)C(N)C1O (stereo not drawn) [SXP 2525]
[1]
  MIC PAWT: 0.25 to 0.5 µg/mL
[2]
  MIC KPWT: 0.5
[3]
  MIC ABWT: 0.5 µg/mL (≈ 0.783 µM)
[4]
  MIC PR1: 8 µg/mL (≈ 12.5 µM)
[5]
  MIC PR2: 1 µg/mL (≈ 1.57 µM)
[6]
  MIC PR3: 8 µg/mL (≈ 12.5 µM)
[7]
  MIC90 Pseudomonas aeruginosa: 4 µg/mL (≈ 6.26 µM)
[8]
  MIC KR1: 1
[9]
  MIC KR2: 0.5
[10]
  MIC KR3: 1
[11]
  MIC90 Klebsiella pneumonia: 1 µg/mL (≈ 1.57 µM)
Panel of E. coli strains
  MIC90 E. coli: 2
[12]
  MIC AB1: 2 to 4 µg/mL
[13]
  MIC AB2: 1 µg/mL (≈ 1.57 µM)
[14]
  MIC AB3: 8 µg/mL (≈ 12.5 µM)
[15]
  MIC90 Acinetobacter baumannii: 2 µg/mL (≈ 3.13 µM)

## NCCC(O)C(=O)NC1CC(N)C(OC2OC(CN)C(O)CC2N)C(F)C1OC1OC(CNC2CNC2)C(O)C(N)C1O (stereo not drawn) [SXP 2554]
[1]
  MIC PAWT: 0.25 µg/mL (≈ 0.4 µM)
[2]
  MIC KPWT: 0.125
[3]
  MIC ABWT: 0.25 µg/mL (≈ 0.4 µM)
[4]
  MIC PR1: 2 µg/mL (≈ 3.2 µM)
[5]
  MIC PR2: 0.5 µg/mL (≈ 0.8 µM)
[6]
  MIC PR3: 8 µg/mL (≈ 12.8 µM)
[7]
  MIC90 Pseudomonas aeruginosa: 4 µg/mL (≈ 6.4 µM)
[8]
  MIC KR1: 0.25
[9]
  MIC KR2: 0.125
[10]
  MIC KR3: 0.25-0.5
[11]
  MIC90 Klebsiella pneumonia: 0.5 µg/mL (≈ 0.8 µM)
Panel of E. coli strains
  MIC90 E. coli: 2
[12]
  MIC AB1: 0.5 µg/mL (≈ 0.8 µM)
[13]
  MIC AB2: 0.25 to 0.5 µg/mL
[14]
  MIC AB3: 2 to 4 µg/mL
[15]
  MIC90 Acinetobacter baumannii: 2 µg/mL (≈ 3.2 µM)

## NCC[C@H](O)C(=O)N[C@@H]1C[C@H](N)[C@@H](O[C@H]2O[C@H](CN)[C@@H](O)[C@H](O)[C@H]2O)[C@H](O)[C@H]1O[C@H]1O[C@H](CO)[C@@H](O)[C@H](N)[C@H]1O [amikacin]
[1]; ATCC27853
  MIC: 1 to 2 µg/mL (≈ 1.71 to 3.42 µM)
[2]; ATCC700603, Klebsiella pneumoniae KPWT, Table 2
  MIC: 1 µg/mL (≈ 1.71 µM)
[3]; ATCCBAA747
  MIC: 1 µg/mL (≈ 1.71 µM)
[16]
  MIC: 2 to 4 µg/mL (≈ 3.42 to 6.83 µM)
[4]
  MIC: 8 µg/mL (≈ 13.7 µM)
[5]
  MIC: 8 to 16 µg/mL (≈ 13.7 to 27.3 µM)
[6]; Pseudomonas aeruginosa, read-out: MIC PR3
  MIC: 64 µg/mL (≈ 109 µM)
[7]; Pseudomonas aeruginosa
  MIC90: ≥ 64 µg/mL
[11]; Klebsiella pneumoniae, fifty resistant contemporary clinical isolates, reference antibiotics
  MIC90: ≥ 64 µg/mL
P. aeruginosa 6294 MLP-3; [19]
  Change from 24 hr. control: −1.49
  Change from T = Rx controls: 1.59
P. aeruginosa 6294 MLP-3; [20]
  Log CFU/thigh: 5.77 Log CFU/thigh
[17]; [19]
  Change from 24 hr. control: −2.73
  Change from T = Rx controls: 0.43
[17]; [20]
  Log CFU/thigh: 3.92 Log CFU/thigh
[18]
  potency against Klebsiella pneumoniae test panel: potency against 3 of 4 strains tested

From patent publication US8586552B2, “4,6-substituted 2,5-dideoxystreptamine aminoglycoside antibiotics” (SelectX Pharmaceuticals, Inc., priority 2012, dated 2013)
